Source: ChEMBL document CHEMBL1153246, “Discovery of novel taspine derivatives as antiangiogenic agents” (Bioorg Med Chem Lett, 2010)
≈ marks a conversion by molar mass, not a printed value.

Tests used:
[1] = Dissociation constant, pKa; conditions: pH 7.4
A549 = assay: Antiproliferative activity against human A549 cells; format: functional, cell-based
ECV-304 [2] = assay: Antiproliferative activity against human ECV304 cells; format: functional, cell-based
[3] = Solubility of the compound
Polar surface area = conditions: pH 7.4
Caco-2 [4] = assay: Antiproliferative activity against human Caco-2 cells; format: functional, cell-based
[5] = Ratio of solubility for drug to taspine; format: physicochemical
ECV-304 [6] = assay: Ratio of IC50 drug to IC50 taspine against human ECV304 cells; format: functional
Caco-2 [7] = assay: Ratio of IC50 drug to IC50 taspine against human Caco-2 cells; format: functional

| pKa [1] | IC50 (A549) [nM] | solubility [3] [µg/mL] | PSA (Polar surface area) [Å2] | SMILES | IC50 (ECV-304 [2]) [nM] | IC50 (Caco-2 [4]) [nM] | Ratio [5] | Ratio IC50 (ECV-304 [6]) | Ratio IC50 (Caco-2 [7]) |
| --- | --- | --- | --- | --- | --- | --- | --- | --- | --- |
| 3.65 | 180 | 61 (≈ 121 µM) | 103 | COC(=O)c1cc(OC(=O)c2ccc(OC)c(O)c2)c(OC)cc1CCNc1ccc(F)c(Cl)c1 | 61 |  |  |  |  |
| 8.57 | 111 | 130 (≈ 322 µM) | 94.5 | COC(=O)c1ccc(OC)c(OC(=O)c2cc(O)c(OC)cc2CCN(C)C)c1 |  | 3100 |  |  |  |
| 7.28 | 158 | 270 (≈ 606 µM) | 104 | COC(=O)c1cc(OC(=O)c2ccc(OC)c(O)c2)c(OC)cc1CCN1CCOCC1 | 2.67 | 52.5 | 13 | 10 | 3 |

| SMILES | pKa [1] | IC50 (A549) [nM] | solubility [3] [µg/mL] | PSA (Polar surface area) [Å2] | IC50 (ECV-304 [2]) [nM] | IC50 (Caco-2 [4]) [nM] | Ratio [5] | Ratio IC50 (ECV-304 [6]) | Ratio IC50 (Caco-2 [7]) |
| --- | --- | --- | --- | --- | --- | --- | --- | --- | --- |
| COC(=O)c1cc(OC(=O)c2ccc(OC)c(O)c2)c(OC)cc1CCN(C)C | 8.75 | 453 | 140 (≈ 347 µM) | 94.5 |  | 11000 | 13 |  |  |
| COc1ccc2c(=O)oc3c(OC)cc(CCN(C)C)c4c(=O)oc1c2c34 [TASPINE] | 8.21 | 4.18 | 21 (≈ 56.9 µM) | 74.3 | 22.3 | 153 |  |  |  |
